In PubChem BioAssay (NCI):
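1) Cells in 96-well plates. 2) Compound, 48 h, 5 concentrations. 3) Linear interpolation between surrounding doses. 4) Unreached endpoint = highest concentration. TGI is the concentration that stops growth completely.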

What was measured:
Assay in all cases: inhibition of tumour cell growth, NCI panel, 48 h
SNB-75 CNS = system: SNB-75 CNS
NCI-H522 lung = system: NCI-H522 lung
HOP-62 NSCLC = system: HOP-62 NSCLC
A549 NSCLC = system: A549 NSCLC
K-562 leukemia = system: K-562 leukemia
COLO 205 colon = system: COLO 205 colon
SF-539 CNS = system: SF-539 CNS
M19-MEL melanoma = system: M19-MEL melanoma
DLD-1 colon = system: DLD-1 colon
TK-10 renal = system: TK-10 renal
DMS 114 small cell lung = system: DMS 114 small cell lung
HOP-92 NSCLC = system: HOP-92 NSCLC
UACC-62 melanoma = system: UACC-62 melanoma
HCT-15 colon = system: HCT-15 colon
SK-MEL-5 melanoma = system: SK-MEL-5 melanoma
DMS 273 small cell lung = system: DMS 273 small cell lung
KM12 colon = system: KM12 colon
MOLT-4 leukemia = system: MOLT-4 leukemia
OVCAR-3 ovarian = system: OVCAR-3 ovarian
XF 498 CNS = system: XF 498 CNS
ACHN renal = system: ACHN renal
CCRF-CEM leukemia = system: CCRF-CEM leukemia
A498 renal = system: A498 renal
SNB-78 CNS = system: SNB-78 CNS
SK-OV-3 ovarian = system: SK-OV-3 ovarian
OVCAR-8 ovarian = system: OVCAR-8 ovarian
SNB-19 CNS = system: SNB-19 CNS
SK-MEL-2 melanoma = system: SK-MEL-2 melanoma
EKVX NSCLC = system: EKVX NSCLC
UO-31 renal = system: UO-31 renal
SF-268 CNS = system: SF-268 CNS
HCT-116 colon = system: HCT-116 colon
IGROV1 ovarian = system: IGROV1 ovarian
RXF 393 renal = system: RXF 393 renal
786-0 renal = system: 786-0 renal
CAKI-1 renal = system: CAKI-1 renal
U251 CNS = system: U251 CNS
M14 melanoma = system: M14 melanoma
NCI-H23 lung = system: NCI-H23 lung
MALME-3M melanoma = system: MALME-3M melanoma
NCI-H460 lung = system: NCI-H460 lung
OVCAR-5 ovarian = system: OVCAR-5 ovarian
LOX IMVI melanoma = system: LOX IMVI melanoma
RPMI-8226 leukemia = system: RPMI-8226 leukemia
SF-295 CNS = system: SF-295 CNS
UACC-257 melanoma = system: UACC-257 melanoma
SK-MEL-28 melanoma = system: SK-MEL-28 melanoma
SW-620 colon = system: SW-620 colon
LXFL 529 NSCLC = system: LXFL 529 NSCLC
HL-60(TB) leukemia = system: HL-60(TB) leukemia
HCC-2998 colon = system: HCC-2998 colon
SN12C renal = system: SN12C renal
OVCAR-4 ovarian = system: OVCAR-4 ovarian
HS 578T breast = system: HS 578T breast
HT29 colon = system: HT29 colon
MDA-MB-435 = system: MDA-MB-435
MDA-N = system: MDA-N
BT-549 breast = system: BT-549 breast
T-47D breast = system: T-47D breast
MCF7 breast = system: MCF7 breast
PC-3 prostate = system: PC-3 prostate
NCI/ADR-RES ovarian = system: NCI/ADR-RES ovarian
SR leukemia = system: SR leukemia
NCI-H226 lung = system: NCI-H226 lung
MDA-MB-231 breast = system: MDA-MB-231 breast
DU-145 prostate = system: DU-145 prostate

O=c1ccc(=O)c2c(=O)c3ccccc3c(=O)c1=2
TGI (SNB-75 CNS): > 100 µM
TGI (NCI-H522 lung): > 100 µM
TGI (HOP-62 NSCLC): > 100 µM
TGI (A549 NSCLC): > 100 µM
TGI (K-562 leukemia): > 100 µM
TGI (COLO 205 colon): > 100 µM
TGI (SF-539 CNS): 70.9 µM
TGI (M19-MEL melanoma): 36.8 µM
TGI (DLD-1 colon): > 100 µM
TGI (TK-10 renal): > 100 µM
TGI (DMS 114 small cell lung): 95.1 µM
TGI (HOP-92 NSCLC): > 100 µM
TGI (UACC-62 melanoma): > 100 µM
TGI (HCT-15 colon): > 100 µM
TGI (SK-MEL-5 melanoma): 35.5 µM
TGI (DMS 273 small cell lung): > 100 µM
TGI (KM12 colon): > 100 µM
TGI (MOLT-4 leukemia): > 100 µM
TGI (OVCAR-3 ovarian): 55.2 µM
TGI (XF 498 CNS): > 100 µM
TGI (ACHN renal): > 100 µM
TGI (CCRF-CEM leukemia): > 100 µM
TGI (A498 renal): > 100 µM
TGI (SNB-78 CNS): > 100 µM
TGI (SK-OV-3 ovarian): > 100 µM
TGI (OVCAR-8 ovarian): > 100 µM
TGI (SNB-19 CNS): > 100 µM
TGI (SK-MEL-2 melanoma): > 100 µM
TGI (EKVX NSCLC): > 100 µM
TGI (UO-31 renal): > 100 µM
TGI (SF-268 CNS): > 100 µM
TGI (HCT-116 colon): 61.1 µM
TGI (IGROV1 ovarian): > 100 µM
TGI (RXF 393 renal): > 100 µM
TGI (786-0 renal): > 100 µM
TGI (CAKI-1 renal): > 100 µM
TGI (U251 CNS): > 100 µM
TGI (M14 melanoma): > 100 µM
TGI (NCI-H23 lung): > 100 µM
TGI (MALME-3M melanoma): > 100 µM
TGI (NCI-H460 lung): > 100 µM
TGI (OVCAR-5 ovarian): > 100 µM
TGI (LOX IMVI melanoma): > 100 µM
TGI (RPMI-8226 leukemia): > 100 µM
TGI (SF-295 CNS): > 100 µM
TGI (UACC-257 melanoma): 90.4 µM
TGI (SK-MEL-28 melanoma): > 100 µM
TGI (SW-620 colon): > 100 µM
TGI (LXFL 529 NSCLC): > 100 µM
TGI (HL-60(TB) leukemia): 70.9 µM
TGI (HCC-2998 colon): > 100 µM
TGI (SN12C renal): > 100 µM
TGI (OVCAR-4 ovarian): > 100 µM

COc1cc2c(/C=C3/C(=O)N(c4ccccc4)c4ccccc43)c(Cl)[nH]c2cc1C
TGI (HS 578T breast): > 100 µM
TGI (SNB-75 CNS): 18.9 µM
TGI (NCI-H522 lung): 6.24 µM
TGI (HOP-62 NSCLC): > 23.6 µM
TGI (A549 NSCLC): > 38.4 µM
TGI (HT29 colon): > 31 µM
TGI (K-562 leukemia): > 100 µM
TGI (COLO 205 colon): 7.05 µM
TGI (SF-539 CNS): 5.86 µM
TGI (TK-10 renal): 12.8 µM
TGI (HOP-92 NSCLC): > 78.4 µM
TGI (UACC-62 melanoma): 27.9 µM
TGI (HCT-15 colon): 11.4 µM
TGI (MDA-MB-435): 3.55 µM
TGI (MDA-N): 5.52 µM
TGI (BT-549 breast): 7.56 µM
TGI (T-47D breast): 7.5 µM
TGI (SK-MEL-5 melanoma): 8.35 µM
TGI (MCF7 breast): > 79 µM
TGI (KM12 colon): 8.07 µM
TGI (MOLT-4 leukemia): 9 µM
TGI (OVCAR-3 ovarian): 9.66 µM
TGI (PC-3 prostate): > 33.3 µM
TGI (ACHN renal): > 49.2 µM
TGI (NCI/ADR-RES ovarian): 6.49 µM
TGI (CCRF-CEM leukemia): > 38.5 µM
TGI (A498 renal): > 71.4 µM
TGI (SK-OV-3 ovarian): 4.78 µM
TGI (SR leukemia): 30.5 µM
TGI (OVCAR-8 ovarian): > 31.6 µM
TGI (SNB-19 CNS): > 54.6 µM
TGI (NCI-H226 lung): > 100 µM
TGI (SK-MEL-2 melanoma): 8.25 µM
TGI (EKVX NSCLC): > 31.4 µM
TGI (UO-31 renal): > 26.9 µM
TGI (SF-268 CNS): > 53.8 µM
TGI (HCT-116 colon): 16.6 µM
TGI (IGROV1 ovarian): > 25.8 µM
TGI (MDA-MB-231 breast): 27 µM
TGI (RXF 393 renal): > 81.4 µM
TGI (786-0 renal): > 44.6 µM
TGI (CAKI-1 renal): > 59.5 µM
TGI (U251 CNS): > 33.3 µM
TGI (M14 melanoma): 12.9 µM
TGI (NCI-H23 lung): 7.81 µM
TGI (MALME-3M melanoma): 19 µM
TGI (NCI-H460 lung): 9.04 µM
TGI (OVCAR-5 ovarian): > 40.5 µM
TGI (DU-145 prostate): 9.82 µM
TGI (LOX IMVI melanoma): 10.2 µM
TGI (RPMI-8226 leukemia): 7.01 µM
TGI (SF-295 CNS): > 22.3 µM
TGI (UACC-257 melanoma): 21.3 µM
TGI (SK-MEL-28 melanoma): > 100 µM
TGI (SW-620 colon): > 100 µM
TGI (HL-60(TB) leukemia): > 23.1 µM
TGI (HCC-2998 colon): 8.37 µM
TGI (SN12C renal): 6.29 µM
TGI (OVCAR-4 ovarian): 6.55 µM
